Assay results: US10220029B2, “Pharmaceutical composition comprising glutarimide derivatives and use thereof in the treatment of eosinophilic diseases” (OBSCHESTVO S ORGANICHENNOI OTVETSTVENNOSTIYU …, priority 2013, dated 2019)

What was measured:
[1] = tested on: model of allergic rhinitis in guinea pigs; assay: Content of cell elements in the nasal lavage in the model of allergic rhinitis in guinea pigs; assay type: in vivo, guinea pig; settings: 14 mg/kg intragastric, 3 times; nasal lavage 24 hours after last ovalbumin; n = 8
Experimental: The model of allergic rhinitis in guinea pigs was realized by a standard method [Vishnu N. Thakare, M. M. Osama, Suresh R. Naik. […] 2013 September; 17(1):18-25].
Guinea pigs (250-300 g) were immunized with 4-time (on days 0, 7, 14, and 21) intragastric administration of ovalbumin (100 μg/pig) and aluminium hydroxide (5 mg/pig), both of which were diluted and suspended in a physiological saline solution. […], a solution of ovalbumin (60 mg/mL) was administered intranasally to each nostril of the animals at a dose 20 μL. On day 35, the animals received subcutaneously an ovalbumin solution (200 μg/mL, 25 μL); the animal back was previously shaved in the site of administration. Swelling and redness at the injection site served as a support of sensibilisation. On day 42 of the study, an ovalbumin solution (60 mg/mL, 20 μL/nostril) was administered intranasally. A group of pseudoimmunized animals was formed to control the formation of exactly allergic inflammation: on days 0, 7, 14, and 21, the pigs received a solution of aluminium hydroxide (5 mg/pig), and on days 28 and 35, they received a physiological saline solution, and on day 42, a solution of ovalbumin (60 mg/mL, 20 μL/nostril).
The studied compounds (14 mg/kg) were administered 3 times by the intragastric route: 48, 24, and 1 hour before the last administration of ovalbumin. The reference preparation, dexamethasone, was administered one time by the intragastric route, 3 hours before the last intranasal administration of ovalbumin.
Clinical manifestations, such as the number of sneezes and nose scratchings, were registered for 2 hours after the last administration of ovalbumin. Nasal lavage was taken 24 hours after the last administration of ovalbumin, and in this lavage, the total lymphocyte count and leukocyte formula were determined. The number of guinea pigs in a group was 8.

[2] = tested on: model of leukotriene-induced eosinophilic lung inflammation in guinea pigs; assay: Content of cell elements in BAL in the model of leukotriene-induced eosinophilic lung inflammation in guinea pigs; assay type: in vivo, guinea pig; settings: four times, BAL 48 hours after LTD4, n = 8
Description: The model of leukotriene-induced eosinophilic lung inflammation in guinea pigs was realized by a standard method [Underwood DC1, Osborn R R, Newsholme S J, Torphy T J, Hay D W. Persistent airway eosinophilia after leukotriene (LT) D4 administration in the guinea pig: modulation by the LTD4 receptor antagonist, pranlukast, or an interleukin-5 monoclonal antibody// Am J Respir Crit Care Med. 1996 October; 154(4 Pt 1):850-7]. A solution of leukotriene D4 (LTD4, Cayman Chemical, USA) at a concentration of […] (a flow rate of 250 mL/hr) was inhaled to male guinea pigs (250-300 g) under conditions of a double-chamber plethysmograph (Emka Technologies, France) for one minute. The studied compound was administered to the animals by the intragastric route four times: 24 hours and 1 hour before and 24 hours and 45 hours after the inhalation of LTD4. The reference preparation, montelukast (0.8 mg/kg), was administered one time by the intragastric route one hour before the inhalation of LTD4. Bronchoalveolar lavage was taken 48 hours after the inhalation of LTD4, and the total lymphocyte count and leukocyte formula were determined in the lavage. The number of guinea pigs in a group was 8.

[3] = tested on: model of atopic dermatitis in mice; assay: Response index in DNCB-induced atopic (allopathic) dermatitis in mice; assay type: in vivo, male Balb/c mice; settings: n = 12
Experimental: The model of allopathic dermatitis was realized by a standard method [Mechanism of dinitrochlorobenzene-induced dermatitis in mice: role of specific antibodies in pathogenesis//PLoS One. 2009; 4(11)].
On days 0 and 12 of the study, 100 μL of a 2% solution of 1-chloro-2,4-dinitrobenzene (DNCB, Sigma-Aldrich, US) in 95% ethanol was applied to shaved sites in the backs of male Balb/c mice. On day 17 of the study, to the right “studied” ear of the animals, 20 μL of the alcohol solution of 2% DNCB was applied two times with a one-hour interval. The studied compound and the reference preparation, dexamethasone, were administered by the intragastric route once daily on days 8-17 of the study.
On day 18 of the study, the animals were euthanized in a CO2 camera. The weights of the “studied” and “control” ears were measured. A response index (RI) expressed in percentage of a difference in the weights of the “studied” and “control” ears was calculated.

Question: Which “Eosinophils, content of cell elements in 1 μL of nasal lavage” value [1] does the source give for O=C1CCCC(=O)N1CCc1cnc[nH]1 [Compound 1, 1-(2-(1H-imidazol-4-yl)ethyl)piperidine-2,6-dione] here?
Answer: 521 ± 129& in 1 μL of nasal lavage

Question: And the “Leukocytes, content of cell elements in 1 μL of nasal lavage” value [1]?
Answer: 1300 ± 254& in 1 μL of nasal lavage

Question: And the “Lymphocytes, content of cell elements in 1 μL of nasal lavage” value [1]?
Answer: 6 ± 6 in 1 μL of nasal lavage

Question: And the “Macrophages, content of cell elements in 1 μL of nasal lavage” value [1]?
Answer: 405 ± 130 in 1 μL of nasal lavage

Question: What about the “Neutrophils, content of cell elements in 1 μL of nasal lavage” value [1] of the same compound?
Answer: 243 ± 58*& in 1 μL of nasal lavage

Question: What about the “Eosinophils, content of cell elements in 1 μL of BAL” value (“Eosinophils, content … of BAL” for short) ([2]; 0.14 mg/kg intragastric) of the same compound?
Answer: 916 ± 144*& in 1 μL of BAL

Question: And the “Leukocytes, content of cell elements in 1 μL of BAL” value (“Leukocytes, content … of BAL” below) ([2]; 0.14 mg/kg intragastric)?
Answer: 2638 ± 463*& in 1 μL of BAL

Question: What about the “Lymphocytes, content of cell elements in 1 μL of BAL” value (from here on “Lymphocytes, content … of BAL”) ([2]; 0.14 mg/kg intragastric) of the same compound?
Answer: 112 ± 27 in 1 μL of BAL

Question: What about the “Macrophages, content of cell elements in 1 μL of BAL” value (“Macrophages, content … of BAL” below) ([2]; 0.14 mg/kg intragastric) of the same compound?
Answer: 1360 ± 323 in 1 μL of BAL

Question: What about the “Neutrophils, content of cell elements in 1 μL of BAL” value (shortened to “Neutrophils, content … of BAL”) ([2]; 0.14 mg/kg intragastric) of the same compound?
Answer: 249 ± 50 in 1 μL of BAL

Question: And the “Eosinophils, content … of BAL” value ([2]; 1.4 mg/kg intragastric)?
Answer: 856 ± 288*& in 1 μL of BAL

Question: And the “Leukocytes, content … of BAL” value ([2]; 1.4 mg/kg intragastric)?
Answer: 3413 ± 1022 in 1 μL of BAL

Question: And the “Lymphocytes, content … of BAL” value ([2]; 1.4 mg/kg intragastric)?
Answer: 144 ± 89 in 1 μL of BAL

Question: And the “Macrophages, content … of BAL” value ([2]; 1.4 mg/kg intragastric)?
Answer: 2134 ± 705 in 1 μL of BAL

Question: What about the “Neutrophils, content … of BAL” value ([2]; 1.4 mg/kg intragastric) of the same compound?
Answer: 279 ± 97 in 1 μL of BAL

Question: And the “Eosinophils, content … of BAL” value ([2]; 14 mg/kg intragastric)?
Answer: 580 ± 124*& in 1 μL of BAL

Question: And the “Leukocytes, content … of BAL” value ([2]; 14 mg/kg intragastric)?
Answer: 2250 ± 373*& in 1 μL of BAL

Question: What about the “Lymphocytes, content … of BAL” value ([2]; 14 mg/kg intragastric) of the same compound?
Answer: 71 ± 28 in 1 μL of BAL

Question: What about the “Macrophages, content … of BAL” value ([2]; 14 mg/kg intragastric) of the same compound?
Answer: 1444 ± 258 in 1 μL of BAL

Question: And the “Neutrophils, content … of BAL” value ([2]; 14 mg/kg intragastric)?
Answer: 155 ± 36 in 1 μL of BAL

Question: What about the “Response index (%)” value ([3]; 0.3 mg/kg intragastric once daily on days 8-17) of the same compound?
Answer: 74.4 ± 7.3*& %

Question: And the “Response index (%)” value ([3]; 3 mg/kg intragastric once daily on days 8-17)?
Answer: 69.5 ± 8.2*& %

Question: And the “Response index (%)” value ([3]; 30 mg/kg intragastric once daily on days 8-17)?
Answer: 69.1 ± 8*& %
